Legend:
Assay in all cases: relative viability (nuclei count vs DMSO), 5 days (fraction); higher = more cells survive
Metformin + OSI-027 = compound: CN(C)C(=N)NC(=N)N [Metformin] + COc1cccc2cc(-c3nc([C@H]4CC[C@H](C(=O)O)CC4)n4ncnc(N)c34)[nH]c12 [OSI-027] (partner 0.5 µM)
Summary of the method: (§1)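 A single step with final 0.05% Triton X-100, 1% formaldehyde and 1 ug/ml Hoechst fixed the cells and stained nuclei 5 days after treatment. Lung cancer cell lines in 1536-well plates had been treated by pin tool the day after seeding with one drug alone or a fixed anchor-drug dose plus five library-drug doses (not always all listed) in √10 steps, and nuclei were counted on 4× images. Relative viability is the ratio of nuclei in treated wells to nuclei in vehicle wells, taken as the median of duplicate plates.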

Metformin + Crizotinib = compound: CN(C)C(=N)NC(=N)N [Metformin] + C[C@@H](Oc1cc(-c2cnn(C3CCNCC3)c2)cnc1N)c1c(Cl)ccc(F)c1Cl [Crizotinib] (partner 1 µM)
Summary of the method: as §1

Metformin + Decitabine = compound: CN(C)C(=N)NC(=N)N [Metformin] + Nc1ncn([C@H]2C[C@H](O)[C@@H](CO)O2)c(=O)n1 [Decitabine] (partner 2 µM)
Summary of the method: as §1

Apatinib + OSI-027 = compound: N#CC1(c2ccc(NC(=O)c3cccnc3NCc3ccncc3)cc2)CCCC1 [Apatinib] + COc1cccc2cc(-c3nc([C@H]4CC[C@H](C(=O)O)CC4)n4ncnc(N)c34)[nH]c12 [OSI-027] (partner 0.5 µM)
Summary of the method: as §1

| Cell Line | relative viability (Metformin + OSI-027; first compound 10 µM) | relative viability (Metformin + OSI-027; first compound 31.62 µM) | relative viability (Metformin + OSI-027; first compound 100 µM) | relative viability (Metformin + OSI-027; first compound 316.23 µM) | relative viability (Metformin + OSI-027; first compound 1000 µM) | relative viability (Metformin + Crizotinib; first compound 10 µM) | relative viability (Metformin + Crizotinib; first compound 31.62 µM) | relative viability (Metformin + Crizotinib; first compound 100 µM) | relative viability (Metformin + Crizotinib; first compound 316.23 µM) | relative viability (Metformin + Crizotinib; first compound 1000 µM) | relative viability (Metformin + Decitabine; first compound 10 µM) | relative viability (Metformin + Decitabine; first compound 31.62 µM) | relative viability (Metformin + Decitabine; first compound 100 µM) | relative viability (Metformin + Decitabine; first compound 316.23 µM) | relative viability (Metformin + Decitabine; first compound 1000 µM) | relative viability (Apatinib + OSI-027; first compound 0.08 µM) | relative viability (Apatinib + OSI-027; first compound 0.253 µM) | relative viability (Apatinib + OSI-027; first compound 0.8 µM) | relative viability (Apatinib + OSI-027; first compound 2.53 µM) | relative viability (Apatinib + OSI-027; first compound 8 µM) |
| --- | --- | --- | --- | --- | --- | --- | --- | --- | --- | --- | --- | --- | --- | --- | --- | --- | --- | --- | --- | --- |
| NCI-H2009 | 0.754 | 0.821 | 0.752 | 0.692 | 0.601 | 1.06 | 1.07 | 1.11 | 1.04 | 0.878 | 0.367 | 0.366 | 0.351 | 0.401 | 0.424 | 0.796 | 0.617 | 0.536 | 0.337 | 0.193 |
| HCC-78 | 0.466 | 0.49 | 0.362 | 0.426 | 0.422 | 0.422 | 0.487 | 0.498 | 0.491 | 0.529 |  | 0.605 | 0.768 | 0.779 | 0.658 | 0.355 | 0.298 | 0.384 | 0.34 | 0.332 |
| LCLC-97TM1 | 0.647 | 0.58 | 0.537 | 0.487 | 0.711 | 0.401 | 0.4 | 0.457 | 0.382 | 0.543 |  | 0.203 | 0.202 | 0.21 | 0.29 | 0.516 | 0.427 | 0.456 | 0.395 | 0.329 |
| NCI-H661 | 0.6 | 0.617 | 0.487 | 0.613 | 0.642 |  | 0.848 | 0.843 | 0.885 | 0.8 | 0.562 | 0.61 | 0.587 | 0.579 | 0.602 | 0.678 | 0.603 | 0.693 | 0.705 | 0.603 |
| NCI-H650 | 0.517 | 0.549 | 0.535 | 0.584 | 0.607 | 0.709 | 0.669 | 0.908 | 0.709 | 0.862 | 0.274 | 0.313 | 0.314 | 0.301 | 0.312 | 0.493 | 0.491 | 0.446 | 0.381 | 0.388 |
| NCI-H1915 |  | 0.666 | 0.651 | 0.56 | 0.665 |  | 0.985 | 0.918 | 0.889 | 0.96 |  | 0.263 | 0.255 | 0.245 | 0.269 | 0.67 | 0.614 | 0.672 | 0.537 | 0.503 |
| COR-L23 | 0.644 | 0.68 | 0.571 | 0.605 | 0.782 | 0.564 | 0.461 | 0.483 | 0.574 | 0.639 | 0.456 | 0.514 | 0.365 | 0.388 | 0.435 | 0.844 | 0.792 | 0.673 | 0.669 | 0.6 |
| NCI-H3122 | 0.672 | 0.851 | 0.574 | 0.419 | 0.339 | 0.225 | 0.213 | 0.241 | 0.255 | 0.224 | 0.343 | 0.371 | 0.361 | 0.359 | 0.369 | 0.952 | 0.64 | 0.969 | 0.955 | 0.845 |

From the supplement of paper PMC10307832
